The values below come from ChEMBL document CHEMBL1201862, “PubChem BioAssay data set” (2004).

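Briefly, cells in 96-well plates were exposed to five compound concentrations for 48 h, and endpoints were estimated by linear interpolation. Here, GI50 denotes the concentration required for 50% inhibition of growth.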 Calls of active or inactive are those of the source. Cut-off read from the data, not from the text of the source: active = GI50 up to about 1.1 µM and inactive = higher. Where a SMILES comes first, the peptide text is derived from it. [ ]: non-standard residue; d: D form. The star is where a group is joined. ξ: configuration not given here. ξNMe2Val = CC(C)C(C(=O)*)N(C)C; NMeV = CN[CH](C(=O)O)C(C)C; NHBn = c1ccc(CN*)cc1

Among the test systems are IGROV-1; Malme-3M; UACC-257; SK-OV-3; HT-29; MDA-MB-231; SN12C; NCI-H23; SW-620; SF-295; HCT-15; A498; TK-10; 786-0; MOLT-4; HOP-62; OVCAR-8; OVCAR-5; UO-31; T47D.
Common to all, as to assay: NCI-60 cell line screen, 48 h

On to `Cn1c2ccccc2c(=O)c2c(O)cc3c(c21)C=CC1(CCCC1)O3`, for which the GI50 is 61.7 µM (inactive) with IGROV-1; > 100 µM (inactive) in the experiment with Malme-3M; > 100 µM (inactive) in the experiment with UACC-257; > 100 µM (inactive) in the experiment with SK-OV-3; 2.67 µM (inactive) in the experiment with HT-29; > 100 µM (inactive) in the experiment with MDA-MB-231. Moreover, the GI50 in the experiment with SN12C is > 100 µM (inactive); with NCI-H23 it was 68.1 µM (inactive); in the experiment on SW-620 it was > 100 µM (inactive); in the experiment with SF-295, 19 µM (inactive); with HCT-15 it was > 100 µM; in the experiment with A498, > 100 µM (inactive). The GI50 with TK-10 was > 100 µM (inactive); with 786-0 it was 76.4 µM (inactive); in the experiment with MOLT-4 it was > 100 µM (inactive); in the experiment on HOP-62, 85.3 µM (inactive); in the experiment on OVCAR-8 it was > 100 µM (inactive); with OVCAR-5 it was 33.7 µM (inactive).

On to `COc1ccc(N2C(=O)CSC2c2cc(OC)c(OC)c(OC)c2)cc1` (centres undefined), for which the GI50 in the experiment with IGROV-1 is 33.7 µM (inactive); in the experiment on Malme-3M, 23.7 µM (inactive); with UACC-257, 12.5 µM (inactive); in the experiment with SK-OV-3 it was 24.2 µM (inactive); in the experiment on HT-29, 21.6 µM (inactive); in the experiment with MDA-MB-231, 26.5 µM (inactive). Also, the GI50 in the experiment on SN12C was 25.1 µM (inactive); in the experiment with NCI-H23, 25.3 µM (inactive); in the experiment with SW-620, 34 µM (inactive); in the experiment on UO-31, 11.8 µM (inactive); in the experiment on SF-295, 22.6 µM (inactive); in the experiment on HCT-15, 16 µM. Further, the GI50 in the experiment on A498 was 29 µM (inactive); in the experiment with TK-10, 43.2 µM (inactive); in the experiment on 786-0, 21.4 µM (inactive); in the experiment with MOLT-4 it was 21.4 µM (inactive); with OVCAR-8, 29.9 µM (inactive); in the experiment with OVCAR-5, 22.3 µM (inactive).

As to `CO/C(=N\N=C\c1ccccc1F)c1ccncc1`, the GI50 in the experiment on Malme-3M, with UACC-257, with HT-29, with MDA-MB-231, in the experiment with SN12C and in the experiment with NCI-H23 was > 10 µM (inactive) in each case. The GI50 was > 10 µM (inactive) in the experiment with SW-620; > 10 µM (inactive) in the experiment with UO-31; > 10 µM (inactive) in the experiment with SF-295; > 10 µM in the experiment on HCT-15; > 10 µM (inactive) in the experiment with TK-10; > 10 µM (inactive) with T47D. The GI50 in the experiment with 786-0, in the experiment on MOLT-4, in the experiment with HOP-62, with OVCAR-8 and with OVCAR-5 was > 10 µM (inactive) each time.

For `CC(C)C(NC(=O)C(C(C)C)N(C)C)C(=O)N(C)C(C(=O)N1CCCC1C(=O)N1CCCC1C(=O)NCc1ccccc1)C(C)C` (centres undefined) (ξNMe2Val-V[NMeV]PP-NHBn; configuration not given here), the GI50 was < 0.0001 µM (active) with IGROV-1; < 0.01 µM (active) in the experiment on Malme-3M; < 0.0001 µM (active) in the experiment on UACC-257; 0.000221 µM (active) with SK-OV-3; < 0.0001 µM (active) in the experiment with HT-29; < 0.0001 µM (active) in the experiment on MDA-MB-231. Further, the GI50 is < 0.0001 µM (active) with SN12C; < 0.0001 µM (active) in the experiment on NCI-H23; < 0.0001 µM (active) with SW-620; 0.0015 µM (active) in the experiment on UO-31; < 0.0001 µM (active) in the experiment on SF-295; < 0.0001 µM in the experiment with HCT-15. For the same compound, the GI50 is < 0.01 µM (active) in the experiment on A498; < 0.0001 µM (active) in the experiment with 786-0; < 0.0001 µM (active) in the experiment on MOLT-4; < 0.0001 µM (active) in the experiment with HOP-62; < 0.0001 µM (active) in the experiment with OVCAR-8; 0.0675 µM (active) with OVCAR-5.

For `CN(C)c1ccc(C2=C([O-])c3cc(-[n+]4ccccc4)ccc3C2=O)cc1`, the GI50 in the experiment with IGROV-1, in the experiment on Malme-3M, in the experiment on UACC-257, in the experiment on HT-29, in the experiment on MDA-MB-231 and in the experiment on SN12C was > 100 µM (inactive) throughout. In addition, the GI50 in the experiment with NCI-H23 is > 100 µM (inactive); with SW-620, > 100 µM (inactive); in the experiment with UO-31, > 100 µM (inactive); with SF-295 it was > 100 µM (inactive); in the experiment on HCT-15, > 100 µM; with A498 it was > 100 µM (inactive). Besides, the GI50 in the experiment with TK-10, with 786-0, with MOLT-4, with HOP-62, with OVCAR-8 and in the experiment with OVCAR-5 was > 100 µM (inactive) throughout.

As for `Cc1ccc(S(=O)(=O)Oc2nc3nc4ccccc4nc3nc2OS(=O)(=O)c2ccc(C)cc2)cc1`, the GI50 in the experiment on IGROV-1, in the experiment with Malme-3M, with UACC-257, with SK-OV-3, with HT-29 and in the experiment with MDA-MB-231 was > 100 µM (inactive) in each case. In addition, the GI50 with SN12C was > 100 µM (inactive); in the experiment with NCI-H23, > 100 µM (inactive); with UO-31, 53.7 µM (inactive); with SF-295, > 100 µM (inactive); in the experiment with HCT-15, > 100 µM; in the experiment with A498 it was > 100 µM (inactive). Moreover, the GI50 with TK-10, in the experiment with 786-0, in the experiment with OVCAR-8 and in the experiment on OVCAR-5 was > 100 µM (inactive) in each case.

`COC(=O)[C@]1(C)CCC[C@@]2(C)C1CCC1=C[C@@]3(C(C)C)CC[C@]12OO3` (some centres undefined): the GI50 was 33.2 µM (inactive) with IGROV-1; 42 µM (inactive) with Malme-3M; 26.2 µM (inactive) in the experiment with UACC-257; 60 µM (inactive) in the experiment on SK-OV-3; 15.2 µM (inactive) in the experiment on HT-29; 31.3 µM (inactive) with SN12C. The GI50 was 34.1 µM (inactive) in the experiment on NCI-H23; 36.1 µM (inactive) with SW-620; 18.5 µM (inactive) with UO-31; 25.8 µM (inactive) in the experiment on SF-295; 31.9 µM in the experiment on HCT-15; 20.4 µM (inactive) in the experiment on A498. Besides, the GI50 in the experiment with TK-10 is > 100 µM (inactive); in the experiment on 786-0 it was 20.4 µM (inactive); in the experiment with MOLT-4, 25.8 µM (inactive); in the experiment with HOP-62 it was 36.9 µM (inactive); in the experiment on OVCAR-8 it was 35.8 µM (inactive); with OVCAR-5 it was 22.4 µM (inactive).

Regarding `Cc1ccc2c(c1)NC(=O)C(N=[N+]=[N-])(c1ccccc1)C2=O` (centres undefined), the GI50 in the experiment on IGROV-1 was 32.8 µM (inactive); in the experiment with Malme-3M it was 32.5 µM (inactive); in the experiment with UACC-257, 29.5 µM (inactive); in the experiment with SK-OV-3, 33.9 µM (inactive); in the experiment with HT-29, 20 µM (inactive); in the experiment with SN12C, 21.1 µM (inactive). The GI50 in the experiment on NCI-H23 is 20 µM (inactive); in the experiment on SW-620, 34.8 µM (inactive); in the experiment with UO-31, 29 µM (inactive); with SF-295, 25.8 µM (inactive); in the experiment on HCT-15, 21.5 µM; in the experiment with A498, 39.9 µM (inactive). Besides, the GI50 in the experiment on TK-10 was 34.4 µM (inactive); in the experiment on 786-0 it was 30.5 µM (inactive); with MOLT-4 it was 24.7 µM (inactive); in the experiment on HOP-62 it was 65.9 µM (inactive); with OVCAR-8, 27.2 µM (inactive); in the experiment with OVCAR-5 it was 33 µM (inactive).

Turning to `COc1cc2c(c(OC)c1OC)C(=O)c1c(O)cc(C)c(OC)c1C2=O`, the GI50 is > 100 µM (inactive) with IGROV-1; > 100 µM (inactive) in the experiment with Malme-3M; 54.6 µM (inactive) in the experiment with UACC-257; > 100 µM (inactive) with HT-29; 55 µM (inactive) in the experiment on MDA-MB-231; > 100 µM (inactive) with SN12C. Moreover, the GI50 with NCI-H23 was > 100 µM (inactive); in the experiment on SW-620 it was > 100 µM (inactive); with UO-31, 85.3 µM (inactive); in the experiment on SF-295 it was 82.6 µM (inactive); with HCT-15, > 100 µM; in the experiment on A498, > 100 µM (inactive). Moreover, the GI50 in the experiment on TK-10 was 27.2 µM (inactive); with 786-0, 78.3 µM (inactive); with MOLT-4, > 100 µM (inactive); in the experiment on HOP-62, 50.7 µM (inactive); in the experiment with OVCAR-8 it was > 100 µM (inactive); in the experiment on OVCAR-5 it was > 100 µM (inactive).

With `C[n+]1c(-c2ccc(/C=N/NC(=N)N/N=C/c3ccc(-c4cn5cc(Cl)ccc5[n+]4C)cc3)cc2)cn2cc(Cl)ccc21`, the GI50 in the experiment with IGROV-1, with UACC-257, in the experiment with SK-OV-3, in the experiment on HT-29, in the experiment on MDA-MB-231 and in the experiment with SN12C was > 100 µM (inactive) throughout. Besides, the GI50 in the experiment on SW-620 is > 100 µM (inactive); in the experiment on UO-31 it was 69.8 µM (inactive); with SF-295 it was > 100 µM (inactive); in the experiment with HCT-15, > 100 µM; in the experiment on TK-10, > 100 µM (inactive); in the experiment on T47D it was > 100 µM (inactive). Moreover, the GI50 in the experiment on 786-0 was 73.3 µM (inactive); in the experiment with MOLT-4, > 100 µM (inactive); in the experiment with HOP-62 it was > 100 µM (inactive); with OVCAR-8, > 100 µM (inactive); with OVCAR-5, > 100 µM (inactive).

Consider `Cc1ccc(-c2nc3cc([N+](=O)[O-])ccc3[nH]2)cc1`, for which the GI50 in the experiment on IGROV-1 was > 100 µM (inactive); in the experiment on Malme-3M it was > 100 µM (inactive); in the experiment with UACC-257, 80.4 µM (inactive); with SK-OV-3, > 100 µM (inactive); in the experiment on HT-29 it was 39.2 µM (inactive); in the experiment with MDA-MB-231 it was > 100 µM (inactive). Moreover, the GI50 in the experiment on SN12C was > 100 µM (inactive); with NCI-H23, > 100 µM (inactive); in the experiment on SW-620, > 100 µM (inactive); in the experiment with UO-31 it was 57.8 µM (inactive); in the experiment with SF-295 it was 63 µM (inactive); in the experiment on HCT-15, 52.8 µM. For the same compound, the GI50 with TK-10 was > 100 µM (inactive); with T47D, 39.6 µM (inactive); with 786-0, > 100 µM (inactive); in the experiment with MOLT-4, 47.4 µM (inactive); with HOP-62 it was > 100 µM (inactive); with OVCAR-8 it was 93.1 µM (inactive).
